In patent publication US20030206914A1, “Synthetic antigens for CD1-restricted immune responses” (priority 1997, published 2003):
Entries after “also recorded” stand apart in the source; their conditions may differ. Like-named read-outs stand apart in the source and are kept apart here.

Legend:
[1] = system: CD8-1 T cell line (CD1c-restricted αβ); experiment: CD8-1 T cell line response; type: cell-based, human
CD1b = CD1b (Homo sapiens, UniProt P29016); experiment: Binding of glycolipid to CD1b
Description: Thus, CD1b binds to both natural and synthetic GMM but not to an analog that has only one long alkyl chain instead of two short alkyl chains.

[2] = system: LDN5 T cell line (CD1b-restricted); type: cell-based, human
[3] = system: mock, CD1a or CD1c transfected C1R cells; experiment: LDN5 cytolysis assay, control transfectants; type: cell-based, human; details: E:T 25:1; similarly treated with antigen
Description: (§1) There was no response in the absence of antigen.
(§2) Similarly treated mock, CD1a or CD1c transfected cells were not lysed (FIG. 2B). The Na adduct of the fully synthetic GMM containing C32 mycolic acid was detected by ESI-MS analysis to be a single ion peak at m/z 681.6 (FIG. 2C). This synthetic GMM antigen lacks long chain length (compared with C80 mycolic acids of mycobacteria), cyclopropanation, double bonds and R groups, ruling out all of these natural chemical variations of the mycolic acid moiety as necessary antigenic determinants. The discovery of a synthetic CD1-restricted antigen with a simple and well defined structure allowed the systematic study of individual molecular features of the antigen that determined the specificity of the T cell response.
(§3) LDN5 was derived from the same human leprosy skin lesion that gave rise to the previously described LAM reactive T cell line LDN4 (P. A. Sieling, et al. (1995) Science 269:227). Cultures were stimulated initially with autologous GM-CSF and IL-4 treated CD1^+ monocytes and M. leprae sonicate. After establishment of LDN5, cultures were maintained in IL-2 supplemented medium and periodically stimulated with allogenic CD1^+ APCs and M. phlei sonicate (X/1000) containing GMM. […] T cell culture methods, proliferation assays and cytolysis assays were carried out according to the methods described in E. M. Beckman, et al. (1996) J. Immunol. […]

[4] = system: DN1 T cell line (CD1b-restricted, specific for free mycolic acid); experiment: DN1 T cell line response; type: cell-based, human
Description: The role of the carbohydrate moiety of the glycolipid in T cell recognition was separately evaluated.
LDN5 was derived from the same human leprosy skin lesion that gave rise to the previously described LAM reactive T cell line LDN4 (P. A. Sieling, et al. (1995) Science 269:227). Cultures were stimulated initially with autologous GM-CSF and IL-4 treated CD1^+ monocytes and M. leprae sonicate. After establishment of LDN5, cultures were maintained in IL-2 supplemented medium and periodically stimulated with allogenic CD1^+ APCs and M. phlei sonicate (X/1000) containing GMM. […] T cell culture methods, proliferation assays and cytolysis assays were carried out according to the methods described in E. M. Beckman, et al. (1996) J. Immunol. 157:2795. All bioassays were done in triplicate and reported as mean +/−standard deviation.

[5] = system: CD1b transfected C1R lymphoblastoid target cells; experiment: LDN5 cytolysis assay, CD1b transfected targets; type: cell-based, human; details: E:T 25:1; targets cultured with antigen (0.5 mg/ml purified glycolipid; 5 μg/ml synthetic GMM)
Description: as §1, §2, §3

APCs = experiment: Uptake and processing of CD1b-presented antigens by APCs; type: cell-based
Description: The uptake and processing pathway for CD1b-presented antigens was also defined. Several steps in the presentation of two related classes of CD1b-presented antigens, free and glycosylated mycolates, were examined. […] Thus, larger lipids, such as trehalose dimycolate cannot be broken down into GMM within cells. Given that the hydrophobic groove can accommodate approximately 32 CH2 units when measured in crystalline form, it is likely that the CD1 protein can open to encompass larger alkyl chains or that the chains can protrude from the groove.

[6] = system: 14 other T cell lines including SP-F3 and DN6
[7] = system: CD1c-restricted T cell lines; experiment: Recognition by other CD1c-restricted T cell lines from different donors; type: cell-based, human; details: lines derived from different donors
Description: Based on a survey of known mycobacterial phospholipids, the leading candidate structure for this antigen was that of a glycosyl phosphopolyprenol (GPP). See, Besra, G. S., et al. (1994) Proc. Natl. Acad. Sci. USA 91:12735-12739. The fragmentation pattern was consistent with the identification of the antigenic M. avium as a GPP, presuming that the lipid of m/z 420 was the hexaprenyl component of a fully saturated hexose phosphohexaprenol. To assess this, the ability of the T cell line CD8-1 to recognize purified mycobacterial GPPs was tested. The structure of Myc-PL, a mannosyl phosphopolyprenol esterified to a mycolic acid, had been determined in detail. Besra, G. S., et al. (1994) supra. Pure myc-PL was cleaved with strong base to yield free mycolate and mannosyl phosphoheptaprenol (MPP). Besra, G. S., et al. (1994) supra. […] Rush, J. S., et al.(1993) J. Biol. Chem. 268:13110-13117. […] Thus, these studies established that CD1c-restricted T cells specifically recognized GPPs from four different sources, including both natural and synthetic analogs of this structure.
All three CD1-restricted lines preferentially recognized the α-saturated MPDs typical of eukaryotes more potently than the α-unsaturated GPPs typical of prokaryotes. Krag, S. S. (1998) Biochem. Biophys. Res. Comm. 243:1-5. […]

[8] = system: CD1a, CD1b and MHC class I restricted T cell lines; experiment: Stimulation of CD1a, CD1b and MHC class I restricted T cell lines (mitogenicity control); type: cell-based
[9] = cytokine activated macrophages / CD1+ APCs

Sequence of CD1b (P61769 21-119): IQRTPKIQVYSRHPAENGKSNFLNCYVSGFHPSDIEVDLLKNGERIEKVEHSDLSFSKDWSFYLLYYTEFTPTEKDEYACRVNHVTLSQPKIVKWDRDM
Sequence of CD1b (P29016 18-303): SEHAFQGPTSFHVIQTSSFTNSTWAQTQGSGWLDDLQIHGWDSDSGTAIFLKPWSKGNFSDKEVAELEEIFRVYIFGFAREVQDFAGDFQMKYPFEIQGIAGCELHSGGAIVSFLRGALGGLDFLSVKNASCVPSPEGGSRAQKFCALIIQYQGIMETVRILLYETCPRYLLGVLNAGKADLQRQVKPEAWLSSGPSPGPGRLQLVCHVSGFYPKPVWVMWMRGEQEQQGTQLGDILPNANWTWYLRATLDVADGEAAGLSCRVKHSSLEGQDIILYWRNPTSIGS

## CC(C)=CCCC(C)=CCCC(C)=CCCC(C)=CCCC(C)=CCCC(C)=CCCC(C)=CCOP(=O)(O)O[C@@H]1O[C@H](CO)[C@@H](O)[C@H](O)[C@@H]1O (relative stereo) [semi-synthetic MPP, β-D-mannopyranosyl-1-monophosphoryl-(poly-cis, di-trans, α-unsaturated) heptaprenol]
[1]
  CD8-1 response to antigen: responded significantly

## CC(C)=CCCC(C)=CCCC(C)=CCCC(C)=CCCC(C)=CCCC(C)=CCCC(C)=CCCC(C)=CCCC(C)=CCCC(C)=CCCC(C)=CCCC(C)=CCCC(C)=CCCC(C)=CCCC(C)=CCCC(C)=CCCC(C)=CCCC(C)=CCCC(C)CCOP(=O)(O)O[C@@H]1O[C@H](CO)[C@@H](O)[C@H](O)[C@@H]1O (relative stereo) [β-D-mannopyranosyl-1-monophosphoryl-(poly-cis, di-trans, α-saturated) nondecaprenol]
[1]
  CD8-1 response to antigen: responded significantly

## CCCCCCCCCCCCCCCCCCCCCCCCCCCCCC(=O)OC[C@H]1OC(O)[C@H](O)[C@@H](O)[C@@H]1O (stereo partly drawn) [G6T, Glucose-6-o-triacontanoate]
CD1b; pH not given
  binding to CD1b: did not bind to CD1b

## CCCCCCCCCCCCCC(O)CC(=O)OC[C@@H](O)[C@@H](O)[C@H](O)[C@@H](O)C=O (stereo partly drawn) [glucose 6-O-3-hydroxypalmitate]
[2]; [9]
  LDN5 proliferative response to antigen: did not respond

## galactose monomycolate
[2]
  LDN5 proliferative response to antigen: responded very weakly or not at all

## glucose monomycolate [GMM]
[3]
  lysis of mock, CD1a or CD1c transfectants by LDN5: not similarly treated mock, CD1a or CD1c transfectants
CD1b; pH 4.0
  binding to CD1b at pH 4.0: occurring at pH 4.0
CD1b; pH 7.0
  binding to CD1b at pH 7.0: not at pH 7.0
[4]
  DN1 response to antigen: not to GMM
[5]
  lysis of CD1b transfected C1R target cells by LDN5: lysed CD1b transfected C1R lymphoblastoid target cells
[2]
  LDN5 proliferative response to antigen: stimulated LDN5; also recorded: proliferated at similar doses
APCs
  T cell recognition after treating APCs with fixing or endosome pH neutralizing agents: blocked by agents that fix APC membranes or neutralized the pH of endosomes
  rate of uptake by APCs: taken up by APCs at the same rate
[6]
  proliferative response of other T cell lines: not 14 other T cell lines tested

## mannose monomycolate
[2]
  LDN5 proliferative response to antigen: responded very weakly or not at all

## mannosyl phosphodolichol [MPD]
[1]
  CD8-1 response to antigen: recognized the 2,3 dihydro analog, mannosyl phosphodolichol (MPD), at much lower concentration
[7]
  recognition by two other CD1c-restricted T cell lines: recognized MPD
[8]
  stimulation of CD1a, CD1b and MHC class I restricted T cell lines: did not stimulate

## mannosyl phosphoheptaprenol [MPP]
[1]
  CD8-1 response to antigen: did respond to the pure MPP

## trehalose dimycolate [TDM, reference compound]
APCs
  cleavage by APCs to antigenic free mycolates or GMM: unable to cleave

## α,α trehalose dimycolate [purified cord factors from M. phlei, reference compound]
[2]; [9]
  LDN5 proliferative response to antigen: not antigenic for LDN5
